In US20120004304A1, “BILE SALT ADJUVANT FOR ANIMALS FOR IMPROVING FAT UTILIZATION EFFICIENCY IN THE BODIES OF ANIMALS, AND ANIMAL FEED COMPRISING SAME” (KIMIN INC., priority 2009, published 2012):

Columns and labels:
[1] = Fat digestion percentage and ME with SSL in animal feed; format: in vivo; conditions: 0.05% by weight of SSL in animal feed
Text: The use of SSL enables improvement in digestion and absorption efficiency of fats, growth promotion, improvement of qualities, and an increase in production yield. From the results of preferred experimental examples, it can be seen that, when 0.05% by weight of SSL is used, fat digestion percentage is increased to about 5 to 10% and ME is increased to about 100 kcal/kg.

[2] = Measurement of serum biochemical index; parameters: species or system ICR rats; conditions: rat, in vivo
Procedure: Feed for animal tests purchased from Shin Chon Feed Co., Ltd, were prepared and various additives were added thereto to obtain a molded animal feed with a predetermined size.
4-week old male ICR rats with a weight of […] were obtained from the laboratory animal center of Seoul National University, were divided into five groups (n=12) and maintained at a temperature of 23±2° C. and a variety of specific animal feeds were administered thereto. At this time, animals of each group were treated with the following chemicals: (percentage (%) means % by weight) • Control Group: animal feed+soybean oil 5% • Experimental Group: animal feed+soybean oil 5%+SSL 0.1% (HLB 20) • Comparative Example 1: animal feed+soybean oil 5%+lecithin 0.1% (HLB 4) • Comparative Example 2: animal feed+soybean oil 5%+glycerin monocaprate 0.1% (HLB 7) • Comparative Example 3: animal feed+soybean oil 5%+POE (20) sorbitan monolaurate 0.1% (HLB 16)
At 15 hours after the final weight of the test animals was measured (25 days), blood was collected from supraorbital […] blood vessel plexus of the rats using a capillary tube, serum was separated, and the following biochemical indexes were measured using a kit. […]

[3] = Fat emulsifying capacity test; format: physicochemical; conditions: 75% water, 24.3% fat, 0.7% emulsifier (3% of fat), stirred
Procedure: In order to confirm emulsifying capacity of sodiumstearoyl-2-lactylate(hereinafter, referred to as “SSL”) of the present invention, 75% water, 24.3% fat and 0.7% SSL (3% of the amount of fat used) were added and stirred. POE (20)-glyceride, mono-glyceride and lecithin were used as comparative examples.

Row | Molecule | ME increase [1] | serum GPT and GOT versus control [2] | emulsifying capacity (appearance after stirring) [3]
1 | CCCCCCCCCCCCCCCCCC(=O)OC(C)C(=O)OC(C)C(=O)[O-].[Na+] (centres unmarked) [SSL, sodium stearoyl-2-lactylate] | about 100 kcal/kg | considerable improvement in serum GPT and GOT | homogeneous dispersion
2 | POE (20)-glyceride | – | – | layer separation
3 | mono-glyceride | – | – | no emulsification
